Measured values taken from ChEMBL document CHEMBL1201862, “PubChem BioAssay data set” (2004).
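Compound exposure: 48 hours, 5 concentrations, 96-well plates. At the GI50, growth is halved.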 Active and inactive are the calls of the source. Cut-off read from the data, not from the text of the source: active = GI50 up to about 1.1 µM and inactive = higher.

What was measured:
Assay in all cases: DTP human tumour cell line panel, 48 h
A498 = system: A498
U-251 = system: U-251
HT-29 = system: HT-29
LOX IMVI = system: LOX IMVI
RXF 393 = system: RXF 393
A549 = system: A549
Malme-3M = system: Malme-3M
UO-31 = system: UO-31
SF-295 = system: SF-295
NCI-H522 = system: NCI-H522
NCI-H23 = system: NCI-H23
SF-539 = system: SF-539
SR = system: SR
SN12C = system: SN12C
SK-OV-3 = system: SK-OV-3
OVCAR-5 = system: OVCAR-5
NCI/ADR-RES = system: NCI/ADR-RES
T47D = system: T47D
Hs-578T = system: Hs-578T

Compound	GI50 (A498)	GI50 (U-251)	GI50 (HT-29)	GI50 (LOX IMVI)	GI50 (RXF 393)	GI50 (A549)	GI50 (Malme-3M)	GI50 (UO-31)	GI50 (SF-295)	GI50 (NCI-H522)	GI50 (NCI-H23)	GI50 (SF-539)	GI50 (SR)	GI50 (SN12C)	GI50 (SK-OV-3)	GI50 (OVCAR-5)	GI50 (NCI/ADR-RES)	GI50 (T47D)	GI50 (Hs-578T)
COC(=O)N/N=C(\C)c1sc(-c2nc(C)c(/C(C)=N/NC(=O)OC)s2)nc1C	> 100 µM (inactive)	> 100 µM (inactive)	> 100 µM (inactive)	64.1 µM (inactive)	> 100 µM (inactive)	> 100 µM (inactive)	> 100 µM (inactive)	> 100 µM (inactive)	> 100 µM (inactive)	41.7 µM (inactive)	> 100 µM (inactive)	> 100 µM (inactive)	20.7 µM (inactive)	> 100 µM (inactive)	> 100 µM (inactive)	> 100 µM (inactive)			
Cc1cc(/N=N/c2ccc(/N=N/c3c(O)c(S(=O)(=O)O)cc4cc(S(=O)(=O)O)ccc34)cc2C)ccc1/N=N/c1ccc2cc(S(=O)(=O)O)cc(S(=O)(=O)O)c2c1	> 100 µM (inactive)	> 100 µM (inactive)	> 31.6 µM (inactive)	> 100 µM (inactive)	> 100 µM (inactive)	> 100 µM (inactive)	> 100 µM (inactive)	> 100 µM (inactive)	> 77.1 µM (inactive)	> 100 µM (inactive)	> 100 µM (inactive)	> 100 µM (inactive)		> 100 µM (inactive)	> 47 µM (inactive)	> 100 µM (inactive)	> 100 µM (inactive)		
C=C1CCC2C(C)(CO)C(O)CCC2(C)C1CC(O)/C(=C/CO)C(=O)O (stereo unspecified)	> 100 µM (inactive)	> 100 µM (inactive)	> 100 µM (inactive)	> 100 µM (inactive)	> 100 µM (inactive)	> 100 µM (inactive)	> 100 µM (inactive)	> 100 µM (inactive)	> 100 µM (inactive)	> 100 µM (inactive)		> 100 µM (inactive)	> 100 µM (inactive)	> 100 µM (inactive)	> 100 µM (inactive)	> 100 µM (inactive)			
C/C=C/CC(S(=O)(=O)c1ccccc1)S(=O)(=O)c1ccccc1	> 100 µM (inactive)	33.3 µM (inactive)	> 100 µM (inactive)	> 100 µM (inactive)	> 100 µM (inactive)	> 100 µM (inactive)		> 100 µM (inactive)	> 100 µM (inactive)	12 µM (inactive)	> 100 µM (inactive)	> 100 µM (inactive)	> 100 µM (inactive)	> 100 µM (inactive)	> 100 µM (inactive)	> 100 µM (inactive)			
C/C(=N\NC(N)=S)c1ccc2c(c1)Sc1ccccc1O2	2.59 µM (inactive)	2.37 µM (inactive)	1.61 µM (inactive)	2.62 µM (inactive)		2.5 µM (inactive)	5.53 µM (inactive)	2.88 µM (inactive)	4.63 µM (inactive)		3.7 µM (inactive)	2.26 µM (inactive)	0.485 µM (active)	3.34 µM (inactive)	4.11 µM (inactive)	4.01 µM (inactive)	2.55 µM (inactive)	6.61 µM (inactive)	3.78 µM (inactive)
CC12O[Te]34OC1(C)C(C)(O3)C2(C)O4	> 8.75 µM (inactive)	3.77 µM (inactive)	13.2 µM (inactive)	3.56 µM (inactive)	14.8 µM (inactive)	12.3 µM (inactive)	18.1 µM (inactive)	11.8 µM (inactive)	3.86 µM (inactive)	11.8 µM (inactive)	16.4 µM (inactive)	15.9 µM (inactive)	7.66 µM (inactive)	10.9 µM (inactive)	22 µM (inactive)	12.2 µM (inactive)			
O=C1C(=O)N(c2ccc(Cl)c(Cl)c2)C(=O)C(=O)C1c1nc2ccccc2s1	> 100 µM (inactive)	> 100 µM (inactive)	> 100 µM (inactive)	> 100 µM (inactive)	> 100 µM (inactive)	> 100 µM (inactive)	> 100 µM (inactive)	> 100 µM (inactive)	> 100 µM (inactive)	> 100 µM (inactive)	> 100 µM (inactive)	> 100 µM (inactive)	> 100 µM (inactive)	> 100 µM (inactive)	> 100 µM (inactive)	> 100 µM (inactive)			
CN(/N=N/c1[nH]cnc1C(N)=O)C1CCCCC1	> 100 µM (inactive)	> 100 µM (inactive)	> 100 µM (inactive)	42.2 µM (inactive)	> 100 µM (inactive)	> 100 µM (inactive)	74.6 µM (inactive)		86.7 µM (inactive)	> 100 µM (inactive)	> 100 µM (inactive)	> 100 µM (inactive)	30.7 µM (inactive)	> 100 µM (inactive)	48.2 µM (inactive)	> 100 µM (inactive)			
